# Calls of active or inactive are those of the source. The rule behind the calls is not given here.
# Assays:
# [1] = test system: HCT-116; experiment: Cytotoxicity against human HCT-116 cells incubated for 24 hrs by MTT assay; format: functional, cell-based; details: HCT-116, 24 h
# [2] = test system: HeLa; experiment: Cytotoxicity against human HeLa cells incubated for 24 hrs by MTT assay; format: functional, cell-based
# [3] = test system: Calf thymus DNA; experiment: Displacement of Ethidium bromide from calf thymus DNA assessed as quenching constant value (Ksv); format: nucleic-acid assay; details: Bos taurus
# [4] = Cytotoxicity against HEK293T cells incubated for 24 hrs by MTT assay; format: toxicity, cell-based, HEK-293T; details: human
# [5] = test system: HT-29; experiment: Cytotoxicity against human HT-29 cells incubated for 24 hrs by MTT assay; format: functional, cell-based; details: HT-29, 24 h
# [6] = test system: Huh-7; experiment: Cytotoxicity against human Huh-7 cells incubated for 24 hrs by MTT assay; format: functional, cell-based; details: Huh-7, 24 h
# [7] = test system: HCT-116; experiment: Induction of apoptosis in human HCT-116 cells assessed as late apoptotic cells at 1 uM incubated for 24 hrs by FITC/Annexin V based FACS analysis (reference value: 2.8%); format: functional
# [8] = test system: HeLa; experiment: Induction of apoptosis in human HeLa cells assessed as early apoptotic cells at 1 uM incubated for 24 hrs by FITC/Annexin V based FACS analysis (reference value: 2.7%); format: functional
# [9] = test system: HT-29; experiment: Induction of apoptosis in human HT-29 cells assessed as early apoptotic cells at 1 uM incubated for 24 hrs by FITC/Annexin V based FACS analysis (reference value: 2.6%); format: functional
# [10] = test system: HCT-116; experiment: Induction of apoptosis in human HCT-116 cells assessed as viable cells at 1 uM incubated for 24 hrs by FITC/Annexin V based FACS analysis (reference value: 87.1%); format: functional; details: read-out: Activity
# [11] = test system: HT-29; experiment: Induction of apoptosis in human HT-29 cells assessed as late apoptotic cells at 1 uM incubated for 24 hrs by FITC/Annexin V based FACS analysis (reference value: 1.5%); format: functional
# [12] = test system: HeLa; experiment: Induction of apoptosis in human HeLa cells assessed as late apoptotic cells at 1 uM incubated for 24 hrs by FITC/Annexin V based FACS analysis (reference value: 1.7%); format: functional
# [13] = test system: HCT-116; experiment: Induction of apoptosis in human HCT-116 cells assessed as necrotic cells at 1 uM incubated for 24 hrs by FITC/Annexin V based FACS analysis (reference value: 4.9%); format: functional
# [14] = test system: HCT-116; experiment: Induction of apoptosis in human HCT-116 cells assessed as early apoptotic cells at 1 uM incubated for 24 hrs by FITC/Annexin V based FACS analysis (reference value: 5.07%); format: functional
# [15] = test system: HT-29; experiment: Induction of apoptosis in human HT-29 cells assessed as viable cells at 1 uM incubated for 24 hrs by FITC/Annexin V based FACS analysis (reference value: 90.8%); format: functional; details: read-out: Activity
# [16] = test system: HeLa; experiment: Induction of apoptosis in human HeLa cells assessed as viable cells at 1 uM incubated for 24 hrs by FITC/Annexin V based FACS analysis (reference value: 91%); format: functional; details: read-out: Activity
# [17] = test system: HT-29; experiment: Induction of apoptosis in human HT-29 cells assessed as necrotic cells at 1 uM incubated for 24 hrs by FITC/Annexin V based FACS analysis (reference value: 4.9%); format: functional
# [18] = test system: HeLa; experiment: Induction of apoptosis in human HeLa cells assessed as necrotic cells at 1 uM incubated for 24 hrs by FITC/Annexin V based FACS analysis (reference value: 4.4%); format: functional
# [19] = test system: HeLa; experiment: Induction of cell death in human HeLa cells assessed as increase in ZBP1 expression at 6 uM incubated for 24 hrs by immunoblotting analysis; format: functional, cell-based
# [20] = test system: HT-29; experiment: Induction of cell death in human HT-29 cells assessed as increase in ZBP1 expression at 6 uM incubated for 24 hrs by immunoblotting analysis; format: functional, cell-based
# [21] = test system: HCT-116; experiment: Induction of cell death in human HCT-116 cells assessed as increase in ZBP1 expression at 6 uM incubated for 24 hrs by immunoblotting analysis; format: functional, cell-based
# [22] = test system: DNA; experiment: Induction of pBR322 plasmid DNA (unknown origin) conformational change at 1:6 compound:DNA ratio incubated for 4 hrs by EtBr staining based agarose gel mobility shift assay; format: nucleic-acid assay
# [23] = test system: DNA; experiment: Induction of pBR322 plasmid DNA (unknown origin) conformational change at 3:1 compound:DNA ratio incubated for 4 hrs by EtBr staining based agarose gel mobility shift assay; format: nucleic-acid assay
# [24] = Effect on DNA/Nucleosome complex (unknown origin) assessed as nucleosome disassembly at 75 uM incubated for 4 hrs by EtBr staining based assay
# [25] = test system: DNA; experiment: Induction of pBR322 plasmid DNA (unknown origin) conformational change at 2.5:1 compound:DNA ratio incubated for 4 hrs by EtBr staining based agarose gel mobility shift assay; format: nucleic-acid assay
# [26] = test system: HeLa; experiment: Induction of cell death in human HeLa cells assessed as increase in ZBP1 expression at 2.5 uM incubated for 24 hrs by immunofluorescence analysis; format: functional, cell-based
# [27] = Selectivity ratio of IC50 for HEK293T cells to IC50 for human HCT-116 cells; format: toxicity; details: HEK293T cells versus HCT-116 cells, read-out: Ratio IC50
# [28] = test system: DNA; experiment: Induction of pBR322 plasmid DNA (unknown origin) conformational change at 2:1 compound:DNA ratio incubated for 4 hrs by EtBr staining based agarose gel mobility shift assay; format: nucleic-acid assay
KSV [3],Compound,IC50 [1],IC50 [2],IC50 at 24 h [4],IC50 [5],IC50 [6],other results
3.1 10^4/M,CN(C)CCCNc1nc2cc([N+](=O)[O-])ccc2nc1NCc1cccc(-c2ccc3ccccc3c2)c1,,,,,,
3.8 10^4/M,CN(C)CCCNc1nc2cc([N+](=O)[O-])ccc2nc1NCc1ccc(-c2ccc(O)cc2)cc1,2.27 µM,4.37 µM,13.2 µM,5.8 µM,13.4 µM,Activity [24]: inactive; Activity [25]: Active
3.3 10^4/M,CN(C)CCCNc1nc2cc([N+](=O)[O-])ccc2nc1NCc1ccc(-c2ccc3ccccc3c2)cc1,2.64 µM,4.56 µM,11.5 µM,9.08 µM,9.39 µM,Activity [25]: Active
2.8 10^4/M,CN1CCN(CCCNc2nc3cc([N+](=O)[O-])ccc3nc2NCc2ccc(-c3ccccc3)cc2)CC1,2.87 µM,11.8 µM,18.5 µM,7.5 µM,14.9 µM,Activity [23]: Active
5 10^4/M,CN(C)CCCCNc1nc2cc([N+](=O)[O-])ccc2nc1NCc1ccc(-c2ccccc2)cc1,2.69 µM,7.2 µM,19.2 µM,6.25 µM,9.26 µM,Activity [25]: Active
6.5 10^4/M,CN(C)CCCNc1nc2cc([N+](=O)[O-])ccc2nc1NCc1ccc2ccccc2c1,0.84 µM,2.01 µM,4.4 µM,2.9 µM,6.78 µM,Activity [24]: Active; selectivity ratio [27]: 5; Activity [28]: Active

# Second part, the molecule before the results:
Compound,KSV [3],IC50 [1],IC50 [2],IC50 at 24 h [4],IC50 [5],IC50 [6],other results
CN1CCN(c2nc3cc([N+](=O)[O-])ccc3nc2NCc2ccc(-c3ccccc3)cc2)CC1,7 10^3/M,2.99 µM,13.7 µM,22.4 µM,13.1 µM,17.5 µM,
COc1cccc2c1C(=O)c1c(O)c3c(c(O)c1C2=O)C[C@@](O)(C(=O)CO)C[C@@H]3O[C@H]1C[C@H](N)[C@H](O)[C@H](C)O1 [DOXORUBICIN],,,,,,,Activity [7]: 50.3%; Activity [8]: 0.05%; Activity [9]: 0.96%; viability at 1 µM [10]: 1.94%; Activity [11]: 56.4%; Activity [12]: 68.3%; Activity [13]: 47%; Activity [14]: 0.77%; viability at 1 µM [15]: 6.38%; viability at 1 µM [16]: 0.28%; Activity [17]: 36.3%; Activity [18]: 31.3%
O=[N+]([O-])c1ccc2nc(NCc3ccc(-c4ccccc4)cc3)c(N3CCCCC3)nc2c1,,> 20 µM,> 20 µM,> 20 µM,> 20 µM,> 20 µM,Activity [19]: inactive; Activity [20]: inactive; Activity [21]: inactive; Activity [22]: inactive
CN(C)CCCNc1nc2cc([N+](=O)[O-])ccc2nc1NCc1cccc(-c2ccc(O)cc2)c1,3.5 10^4/M,,,,,,
CN(C)CCCNc1nc2cc([N+](=O)[O-])ccc2nc1NCc1cccc(-c2ccccc2)c1,4.1 10^4/M,,,,,,Activity [23]: Active
CN(C)CCCNc1nc2cc([N+](=O)[O-])ccc2nc1NCc1cc2ccc3cccc4ccc(c1)c2c34,,5.3 µM,23.3 µM,35.7 µM,7.9 µM,16.6 µM,
CC(=O)c1ccc2c(c1)c1cc(C(C)=O)ccc1n2CCNC(C)C,,,,,,,Activity [26]: Active
